Laboratory results taken from patent US20230192617A1, “AZABICYCLIC(THIO)AMIDES AS FUNGICIDAL COMPOUNDS” (Bayer CropScience Aktiengesellschaft, priority 2020, published 2023).

Key:
[1] = Measurement of Log P values by HPLC on reversed phase columns (EEC directive 79/831 Annex V.A8); format: physicochemical; conditions: reversed phase HPLC column, method [a]: LC-UV, acidic range, 0.1% formic acid in water and acetonitrile as eluent
Outline: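 Reversed-phase HPLC with UV detection per EEC 79/831 Annex V.A8, linear 10–95% acetonitrile gradient. Aqueous eluent: 0.1% formic acid (acidic), 0.001 M ammonium acetate (neutral), or 0.1% phosphoric acid (acidic); multiple values in one method joined by "+".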

Alternaria brassicae = experiment: In vivo preventive test on Alternaria brassicae (leaf spot on radish or cabbage); conditions: 500 ppm of active ingredient, preventive spray on radish or cabbage, evaluated 3 to 4 days after inoculation, read-out: efficacy
Outline: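 Young radish or cabbage plants were sprayed with compound dissolved in DMSO/acetone/Tween 80 and diluted in water; controls received solvent only. Inoculation by spraying A. brassicae spore suspension 24 h later, then 3–4 days at 20 °C and 100% relative humidity.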

Botrytis cinerea [2] = experiment: In vivo preventive test on Botrytis cinerea (grey mould); conditions: 500 ppm of active ingredient, preventive spray on gherkin or cabbage, evaluated 4 to 5 days after inoculation, read-out: efficacy
Outline: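 Young gherkin or cabbage plants were sprayed with compound in DMSO/acetone/Tween 80 diluted in water, then inoculated 24 hours later with a B. cinerea spore suspension. Incubation lasted 4 to 5 days: gherkin at 17° C., 90% relative humidity; cabbage at 20° C., 100% relative humidity.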

Sphaerotheca fuliginea = experiment: In vivo preventive test on Sphaerotheca fuliginea (powdery mildew on cucurbits); conditions: Podosphaera fuliginea, 192 h; 500 ppm of active ingredient; preventive spray on gherkin; evaluated 8 days after inoculation; read-out: efficacy
Outline: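 Young gherkin plants were sprayed with compound in DMSO/acetone/Tween 80 diluted in water. They were inoculated 24 h later with a spore suspension of Sphaerotheca fuliginea. Plants were then kept for 8 days at 20 °C and 70–80% relative humidity.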

[3] = test system: Colletotrichum lindemuthianum; experiment: In vivo preventive test on Colletotrichum lindemuthianum (leaf spot on bean); conditions: 168 h, 500 ppm of active ingredient, preventive spray on bean, evaluated 7 days after inoculation, read-out: efficacy
Outline: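 Young bean plants sprayed with compound in DMSO/acetone/Tween 80 diluted in water; solvent-only controls. Inoculated 24 h later with C. lindemuthianum spore suspension, then kept 24 h at 20 °C/100% RH and 6 days at 20 °C/90% RH.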

Alternaria alternata = Alternaria alternata in vitro cell test; format: cell-based; conditions: 120 h, 20 ppm of active ingredient, liquid culture, 5 days incubation, spectrometric measurement of mycelium growth, read-out: efficacy (inhibition of fungal growth)
Outline: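 Liquid culture assay in which A. alternata spores in medium received DMSO-solubilized compound (final DMSO ≤1%). After 5 days, mycelium growth was measured spectrometrically. Inhibition was calculated against fungicide-free control wells.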

[4] = test system: Colletotrichum lindemuthianum; experiment: B-8. Colletotrichum lindemuthianum in vitro cell test; format: cell-based; conditions: 144 h, 20 ppm of active ingredient, 6 days incubation, liquid culture, absorbance, read-out: efficacy (inhibition of fungal growth)
Outline: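 Spore suspension of C. lindemuthianum in liquid medium exposed to DMSO-solubilized compounds (final DMSO ≤1%) for 6 days. Mycelial growth read by absorbance, with inhibition calculated relative to compound-free control wells.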

Septoria tritici = experiment: B-9. Septoria tritici in vitro cell test; format: cell-based; conditions: Zymoseptoria tritici, 168 h; 20 ppm of active ingredient; 7 days incubation; liquid culture, absorbance; read-out: efficacy (inhibition of fungal growth)
Method: B-9. Septoria tritici In Vitro Cell Test [table] Fungicides were solubilized in DMSO and the solution used to prepare the required range of concentrations. The final concentration of DMSO used in the assay was ≤1%. A spore suspension of S. tritici was prepared and diluted to the desired spore density. Fungicides were evaluated for their ability to inhibit spore germination and mycelium growth in liquid culture assay. The compounds were added in the desired concentration to the culture medium with spores. After 7 days incubation, fungi-toxicity of compounds was determined by spectrometric measurement of mycelium growth. Inhibition of fungal growth was determined by comparing the absorbance values in wells containing the fungicides with the absorbance in control wells without fungicides.

Pyrenophora teres [5] = experiment: B-10. Pyrenophora teres in vitro cell test; format: cell-based; conditions: 144 h, 20 ppm of active ingredient, 6 days incubation, liquid culture, absorbance, read-out: efficacy (inhibition of fungal growth)
Outline: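 Liquid-culture assay on a P. teres spore suspension with compounds added to the medium from DMSO solutions, final DMSO ≤1%. Mycelium growth read spectrometrically after 6 days. Inhibition calculated from absorbance against untreated control wells.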

Botrytis cinerea [6] = experiment: B-11. Botrytis cinerea in vitro cell test; format: cell-based; conditions: 144 h, 20 ppm of active ingredient, 6 days incubation, liquid culture, absorbance, read-out: efficacy (inhibition of fungal growth)
Outline: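 B. cinerea spores were grown in liquid culture with compound (DMSO ≤1% final). Mycelium growth was measured spectrometrically after 6 days, with inhibition taken as absorbance relative to untreated control wells.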

Pyrenophora teres [7] = experiment: In vivo preventive test on Pyrenophora teres (net blotch on barley); conditions: 240 h, 500 ppm of active ingredient, preventive spray on barley, evaluated 10 days after inoculation, read-out: efficacy
Outline: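 Young barley plants sprayed preventively with compound formulated in DMSO/acetone/Tween 80 and diluted in water; controls got solvent only. Inoculated 24 hours later with P. teres spore suspension, then held 48 hours at 20° C, 100% RH and 8 days at 20° C, 70-80% RH.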

chromatographic logP [1]	SMILES	pest or weed control at 500 ppm (Alternaria brassicae) [%]	pest or weed control at 500 ppm (Botrytis cinerea [2]) [%]	pest or weed control at 500 ppm (Sphaerotheca fuliginea) [%]	pest or weed control at 500 ppm [3] [%]	inhibition at 20 ppm (Alternaria alternata) [%]	inhibition at 20 ppm [4] [%]	inhibition at 20 ppm (Septoria tritici) [%]	inhibition at 20 ppm (Pyrenophora teres [5]) [%]	inhibition at 20 ppm (Botrytis cinerea [6]) [%]	pest or weed control at 500 ppm (Pyrenophora teres [7]) [%]
3.7	Cc1ccc(C(F)(F)CNC(=O)c2c(Oc3cccc(C(F)(F)F)c3)nnc3c2COCC3)c(C)c1 [I-122]	90 to 100	90 to 100	90 to 100	80 to 89	90 to 100	90 to 100	90 to 100	90 to 100	90 to 100	
2.91	O=C(NCCc1ncc(Cl)cn1)c1c(Oc2cccc(C(F)(F)F)c2)nnc2ccccc12 [I-077]	90 to 100	90 to 100		70 to 79	90 to 100	90 to 100	90 to 100	90 to 100	90 to 100	
5.12	Cc1ccc(C(F)(F)CNC(=O)c2c(Oc3cccc(C(F)(F)F)c3)nnc3cc(C4CC4)ccc23)c(C)c1 [I-242]	90 to 100	90 to 100	80 to 89		90 to 100	90 to 100	80 to 89	90 to 100	90 to 100	70 to 79
4.05	Cc1ccc(C(F)(F)CNC(=O)c2c(Oc3cccc(C(F)(F)F)c3)nnc3c2CCCC3)c(C)c1 [I-115]	90 to 100	90 to 100	90 to 100	90 to 100	90 to 100	90 to 100	90 to 100	90 to 100		90 to 100
3.92	COc1cc([C@@H](F)CNC(=O)c2c(Oc3cccc(C(F)(F)F)c3)nnc3ccccc23)ccc1Cl (racemic) [I-176]	90 to 100			70 to 79	90 to 100		80 to 89	90 to 100	90 to 100	80 to 89
3.71	Cc1ccc(C(F)(F)CNC(=O)c2c(Oc3cccc(C4CC4)c3F)cnc3nccnc23)c(C)c1 [I-099]	90 to 100	90 to 100		90 to 100	90 to 100	90 to 100	80 to 89	90 to 100	90 to 100	
4.34	Cc1cc(Cl)ccc1C(F)(F)CNC(=O)c1c(Oc2cccc(C3CC3)c2F)nnc2c1CCCC2 [I-147]	90 to 100	90 to 100	90 to 100	90 to 100	90 to 100	90 to 100	90 to 100	90 to 100		90 to 100
5	Cc1ccc(C(F)(F)CNC(=O)c2c(Oc3cccc(C(F)(F)F)c3)nnc3cc(C4CC4)ccc23)cc1C [I-235]	90 to 100	90 to 100	90 to 100		90 to 100	90 to 100	90 to 100	90 to 100	90 to 100	80 to 89
